Data as given in patent US20230102554A1 (GB002, INC., priority 2019, published 2023).
pIC50: −log10 of the molar value.

Columns and labels:
[1] = target: T1, Human PDGFRα, cytoplasmic domain (GST-PDGFRα) (Homo sapiens, UniProt P16234); assay: Human PDGFRα biochemical inhibition assay (off-chip Mobility Shift Assay)
T1 construct: made in house

[2] = target: T2, Human PDGFRβ, cytoplasmic domain (GST-PDGFRβ) (Homo sapiens, UniProt P09619); assay: Human PDGFRβ biochemical inhibition assay (off-chip Mobility Shift Assay)
T2 construct: made in house
T2 sequence (P09619 with tags, fused parts or gaps): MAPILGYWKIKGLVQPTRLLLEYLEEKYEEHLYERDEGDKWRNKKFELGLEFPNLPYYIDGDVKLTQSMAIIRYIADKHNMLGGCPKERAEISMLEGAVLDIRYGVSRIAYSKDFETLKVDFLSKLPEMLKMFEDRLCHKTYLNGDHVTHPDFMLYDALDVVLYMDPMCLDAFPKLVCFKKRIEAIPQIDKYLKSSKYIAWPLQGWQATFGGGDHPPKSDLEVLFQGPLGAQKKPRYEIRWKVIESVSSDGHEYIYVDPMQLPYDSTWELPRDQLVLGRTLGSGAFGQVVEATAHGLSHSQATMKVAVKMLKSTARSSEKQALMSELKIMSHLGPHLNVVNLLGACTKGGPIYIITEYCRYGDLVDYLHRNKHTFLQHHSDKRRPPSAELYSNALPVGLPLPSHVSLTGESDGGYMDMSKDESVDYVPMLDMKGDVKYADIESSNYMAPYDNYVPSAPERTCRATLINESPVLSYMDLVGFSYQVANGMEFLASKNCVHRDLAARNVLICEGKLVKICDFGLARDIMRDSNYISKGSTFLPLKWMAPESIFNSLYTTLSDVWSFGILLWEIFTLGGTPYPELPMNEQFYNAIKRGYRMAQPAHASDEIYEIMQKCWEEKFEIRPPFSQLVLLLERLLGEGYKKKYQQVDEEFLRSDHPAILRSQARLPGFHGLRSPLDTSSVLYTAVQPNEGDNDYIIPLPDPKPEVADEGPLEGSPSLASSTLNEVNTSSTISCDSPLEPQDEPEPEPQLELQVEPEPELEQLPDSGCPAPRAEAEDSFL
Method in brief: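 GST-tagged cytoplasmic domain (aa 557-1106) from baculovirus was incubated 1 h at room temperature with compound, CSKtide, ATP at Km and Mg²⁺ in HEPES buffer, pH 7.5. Phosphorylated and unphosphorylated peptide were separated by off-chip mobility shift, and the product ratio P/(P+S) gave percent inhibition.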

T1 sequence (P16234 550-1089 T674I): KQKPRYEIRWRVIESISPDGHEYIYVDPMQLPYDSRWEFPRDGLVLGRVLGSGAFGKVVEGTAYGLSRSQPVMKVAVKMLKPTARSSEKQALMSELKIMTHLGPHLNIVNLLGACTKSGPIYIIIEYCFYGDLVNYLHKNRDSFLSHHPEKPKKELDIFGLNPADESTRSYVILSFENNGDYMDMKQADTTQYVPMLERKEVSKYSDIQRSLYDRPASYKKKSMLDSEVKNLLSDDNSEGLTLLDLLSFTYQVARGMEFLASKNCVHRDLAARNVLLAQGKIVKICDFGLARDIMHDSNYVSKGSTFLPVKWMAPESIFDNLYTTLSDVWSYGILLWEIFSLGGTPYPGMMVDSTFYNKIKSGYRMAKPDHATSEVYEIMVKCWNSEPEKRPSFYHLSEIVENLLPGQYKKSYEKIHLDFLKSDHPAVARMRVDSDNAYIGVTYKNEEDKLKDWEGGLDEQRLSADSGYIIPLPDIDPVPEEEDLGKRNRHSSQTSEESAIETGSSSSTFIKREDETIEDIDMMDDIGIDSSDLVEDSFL

Row | SMILES | pIC50 [1] | pIC50 [2]
1 | COc1ccc(-n2ccc3ncc(N[C@@H](C)c4cccc(NC(=O)c5cncc(C)c5)c4)cc32)cc1OC [Compound 6, (S)—N-(3-(1-((1-(3,4-dimethoxyphenyl)-1H-pyrrolo[3,2-b]pyridin-6-yl)amino)ethyl)phenyl)-5-methylnicotinamide] | > 6.52 | ≤ 6.00
2 | Cc1cc(C(=O)Nc2cccc([C@H](C)Nc3cnc4[nH]cc(-c5cnn(C)c5)c4n3)c2)cnc1N1CCCC1 [Compound 577, (S)-5-methyl-N-(3-(1-((7-(1-methyl-1H-pyrazol-4-yl)-5H-pyrrolo[2,3-b]pyrazin-2-yl)amino)ethyl)phenyl)-6-(pyrrolidin-1-yl)nicotinamide] | > 6.52 | > 6.52
3 | C[C@H](Nc1cnc2cnn(C)c2n1)c1cccc(NC(=O)c2cncc(O)c2)c1 [Compound 241, (S)-5-hydroxy-N-(3-(1-((1-methyl-1H-pyrazolo[3,4-b]pyrazin-6-yl)amino)ethyl)phenyl)nicotinamide] | > 6.52 | 6.00 to 6.52
4 | CCn1cc2ncc(N[C@@H](C)c3cccc(NC(=O)c4cnc(CN5CC6(COC6)C5)c(F)c4)c3)nc2n1 [Compound 500, (S)-6-((2-oxa-6-azaspiro[3.3]heptan-6-yl)methyl)-N-(3-(1-((2-ethyl-2H-pyrazolo[3,4-b]pyrazin-6-yl)amino)ethyl)phenyl)-5-fluoronicotinamide] | ≤ 6.00 | ≤ 6.00
5 | CCn1cc2ncc(N[C@@H](C)c3cccc(NC(=O)c4ccc(CN5CCC6(COC6)C5)c(C)c4)c3)nc2n1 [Compound 460, (S)-4-((2-oxa-6-azaspiro[3.4]octan-6-yl)methyl)-N-(3-(1-((2-ethyl-2H-pyrazolo[3,4-b]pyrazin-6-yl)amino)ethyl)phenyl)-3-methylbenzamide] | > 6.52 | > 6.52
6 | Cc1ncc(C(F)(F)F)cc1C(=O)Nc1cccc([C@H](C)Nc2cnc3cnn(C)c3n2)c1 [Compound 126, (S)-2-methyl-N-(3-(1-((1-methyl-1H-pyrazolo[3,4-b]pyrazin-6-yl)amino)ethyl)phenyl)-5-(trifluoromethyl) nicotinamide] | 6.00 to 6.52 | ≤ 6.00
7 | CCn1cc2ncc(N[C@@H](C)c3cc(NC(=O)Cc4ccc5c(n4)CCC5)ccc3C)nc2n1 [Compound 719, (S)-2-(6,7-dihydro-5H-cyclopenta[b]pyridin-2-yl)-N-(3-(1-((2-ethyl-2H-pyrazolo[3,4-b]pyrazin-6-yl)amino)ethyl)-4-methylphenyl)acetamide] | > 6.52 | > 6.52
8 | C=Cc1ncc(C(=O)Nc2cccc([C@H](C)Nc3cnc4cnn(C)c4n3)c2)cc1C [Compound 245, (S)-5-methyl-N-(3-(1-((1-methyl-1H-pyrazolo[3,4-b]pyrazin-6-yl)amino)ethyl)phenyl)-6-vinylnicotinamide] | > 6.52 | > 6.52
